Results published in US8404673B2, “Carbocyclic GlyT1 receptor antagonists” (Hoffmann-La Roche Inc., priority 2009, dated 2013).

biological target: T1, mGlyT-1b (Mus musculus, UniProt P28571); test: Glycine Uptake Inhibition Assay (mGlyT-1b); format: cell-based; settings: IC50 data
T1 construct: host or cells: Flp-in-CHO
T1 sequence (P28571 1-651 isoform P28571-2): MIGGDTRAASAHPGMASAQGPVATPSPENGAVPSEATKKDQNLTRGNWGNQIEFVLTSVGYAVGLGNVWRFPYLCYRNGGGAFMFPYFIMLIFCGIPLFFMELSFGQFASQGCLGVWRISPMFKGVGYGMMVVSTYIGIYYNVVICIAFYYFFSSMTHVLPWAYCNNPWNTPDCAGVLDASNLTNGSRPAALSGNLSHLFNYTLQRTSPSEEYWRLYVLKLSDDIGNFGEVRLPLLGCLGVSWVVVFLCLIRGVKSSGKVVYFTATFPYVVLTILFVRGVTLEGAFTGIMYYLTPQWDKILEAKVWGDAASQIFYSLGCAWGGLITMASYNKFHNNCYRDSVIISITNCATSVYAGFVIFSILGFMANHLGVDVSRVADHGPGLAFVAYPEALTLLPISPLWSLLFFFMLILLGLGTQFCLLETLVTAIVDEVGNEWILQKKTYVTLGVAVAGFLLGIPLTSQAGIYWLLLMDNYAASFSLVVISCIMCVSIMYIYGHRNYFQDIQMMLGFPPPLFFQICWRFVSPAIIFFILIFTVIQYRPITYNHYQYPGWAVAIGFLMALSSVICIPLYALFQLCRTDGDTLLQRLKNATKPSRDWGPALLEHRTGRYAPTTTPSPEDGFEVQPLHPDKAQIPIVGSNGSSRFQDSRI

Compared with `Cc1cc(C(F)(F)F)cc(C(F)(F)F)c1C(=O)N[C@H]1CCC[C@H]1N1CCCC1` (relative stereo) [Example 103, cis-2-Methyl-N-(2-pyrrolidin-1-yl-cyclopentyl)-4,6-bis-trifluoromethyl-benzamide], `CSc1cc(C(F)(F)F)cc(C(F)(F)F)c1C(=O)N[C@@H]1CCC[C@@H]1N1CCCC1` (single isomer, unassigned) [Example 119, (−)-cis-2-Methylsulfanyl-N-(2-pyrrolidin-1-yl-cyclopentyl)-4,6-bis-trifluoromethyl-benzamide] is 2.6-fold higher in IC50: 24.9 nM for the first, 65.4 nM for the second. The first is the more potent here.

`O=C(NC1CCCC1N1CCCC1)c1c(Cl)cc(C(F)(F)F)cc1Cl` (single isomer, unassigned; (+)) [Example 128, (+)-2,6-Dichloro-N-cis-(2-pyrrolidin-1-yl-cyclopentyl)-4-trifluoromethyl-benzamide] and `O=C(N[C@H]1CCC[C@H]1N1CCCC1)c1c(Cl)cc(C(F)(F)F)cc1Cl` (relative stereo) [Example 108, cis-2,6-Dichloro-N-(2-pyrrolidin-1-yl-cyclopentyl)-4-trifluoromethyl-benzamide] are within 1.5-fold of each other in IC50: 69.1 nM for the first, 88.2 nM for the second.

First: O=C(NC1CCCC1N1CCCC1)c1c(Cl)cc(C(F)(F)F)cc1Cl (single isomer, unassigned; (-)) [Example 129, (−)-2,6-Dichloro-N-cis-(2-pyrrolidin-1-yl-cyclopentyl)-4-trifluoromethyl-benzamide]
Second: Cc1cc(C(F)(F)F)cc(C)c1C(=O)N[C@H]1CCC[C@H]1N1CCCC1 (relative stereo) [Example 132, 2,6-Dimethyl-N-((cis)-2-pyrrolidin-1-yl-cyclopentyl)-4-trifluoromethyl-benzamide]
The IC50 of the first is 1.8-fold higher: 64.5 nM for the first, 36.5 nM for the second. The second is the more potent here.

Going from `CCc1cc(C(F)(F)F)cc(C(F)(F)F)c1C(=O)NC1CCCC1N1CCCC1` (single isomer, unassigned) [Example 142] to `CCc1cc(C(F)(F)F)cc(C(F)(F)F)c1C(=O)N[C@H]1CCC[C@H]1N1CCCC1` (single isomer, unassigned) [Example 141, (+)-2-Ethyl-N-(2-pyrrolidin-1-yl-cyclopentyl)-4,6-bis-trifluoromethyl-benzamide], the IC50 falls from 68 nM to 43.5 nM (1.6-fold).

`O=C(N[C@H]1CCC[C@H]1N1CCCC1)c1ccc(C(F)(F)F)cc1C1CC1` (racemic) [Example 91, 2-Cyclopropyl-cis-N-(2-pyrrolidin-1-yl-cyclopentyl)-4-trifluoromethyl-benzamide] and `O=C(NC1CCCC1N1CCCC1)c1ccc(C(F)(F)F)cc1C1CC1` (single isomer, unassigned) [Example 96, (+2-Cyclopropyl-N-cis-(-2-pyrrolidin-1-yl-cyclopentyl)-4-trifluoromethyl-benzamide] are within 1.5-fold of each other in IC50: 45.3 nM for the first, 42.8 nM for the second.

Compared with `COc1cc(C(F)(F)F)cc(SC)c1C(=O)N[C@@H]1CCC[C@@H]1N1CCCC1` (single isomer, unassigned) [Example 59, (+)-2-Methoxy-6-methylsulfanyl-N-(2-pyrrolidin-1-yl-cyclopentyl)-4-trifluoromethyl-benzamide], `COc1cc(C(F)(F)F)cc(Br)c1C(=O)N[C@H]1CCC[C@H]1N1CCCC1` (racemic) [Example 101, 2-Bromo-6-methoxy-N-cis-(2-pyrrolidin-1-yl-cyclopentyl)-4-trifluoromethyl-benzamide] is 1.6-fold higher in IC50: 61.1 nM for the first, 94.8 nM for the second.

Going from `COc1cc(C(F)(F)F)cc(C2CC2)c1C(=O)N[C@H]1CCC[C@H]1N1CCCC1` (relative stereo) [Example 131, 2-Cyclopropyl-6-methoxy-N-((cis)-2-pyrrolidin-1-yl-cyclopentyl)-4 trifluoromethyl-benzamide] to `COc1cc(C(F)(F)F)cc(Br)c1C(=O)NC1CCCC1N1CCCC1` (single isomer, unassigned; (-)) [Example 114, (−)-2-Bromo-6-methoxy-N-cis-(2-pyrrolidin-1-yl-cyclopentyl)-4-trifluoromethyl-benzamide], the IC50 rises from 19.9 nM to 66.8 nM (3.4-fold).

Compared with `CSc1cc(C(F)(F)F)cc(C(F)(F)F)c1C(=O)N[C@H]1CCC[C@H]1N1CCCC1` (racemic) [Example 104, cis-2-Methylsulfanyl-N-(2-pyrrolidin-1-yl-cyclopentyl)-4,6-bis-trifluoromethyl-benzamide], `O=C(NC1CCCC1N1CCCC1)c1c(C2CC2)cc(C(F)(F)F)cc1C(F)(F)F` (single isomer, unassigned; (-)) [Example 138, (−)-2-Cyclopropyl-N-((1R,2, or 1S,2R)-2-pyrrolidin-1-yl-cyclopentyl)-4,6-bis-trifluoromethyl-benzamide] is 3.6-fold higher in IC50: 18.9 nM for the first, 67.9 nM for the second.

First: CCc1cccc(C2CC2)c1C(=O)N[C@@H]1CCC[C@@H]1N1CCCC1 (single isomer, unassigned) [Example 121, (+)-cis-2-Cyclopropyl-6-ethyl-N-(2-pyrrolidin-1-yl-cyclopentyl)-benzamide]
Second: CCc1cccc(C)c1C(=O)N[C@H]1CCC[C@H]1N1CCCC1 (relative stereo) [Example 94, cis-2-Ethyl-6-methyl-N-(2-pyrrolidin-1-yl-cyclopentyl)-benzamide]
The IC50 of the first is 2.7-fold lower: 36.1 nM for the first, 98.4 nM for the second. The first is the more potent here.

`CSc1cc(C(F)(F)F)ccc1C(=O)N[C@@H]1CCC[C@@H]1N1CCCC1` (single isomer, unassigned) [Example 84, (+)-2-Methylsulfanyl-N-(2-pyrrolidin-1-yl-cyclopentyl)-4-trifluoromethyl-benzamide] and `CCc1cc(C(F)(F)F)ccc1C(=O)N[C@H]1CCC[C@H]1N1CCCC1` (relative stereo) [Example 80, cis-2-Ethyl-N-(2-pyrrolidin-1-yl-cyclopentyl)-4-trifluoromethyl-benzamide] are within 1.5-fold of each other in IC50: 89 nM for the first, 89.6 nM for the second.

Compared with `COc1cc(C(F)(F)F)cc(Br)c1C(=O)NC1CCCC1N1CCCC1` (single isomer, unassigned; (+)) [Example 115, (+)-2-Bromo-6-methoxy-N-cis-(2-pyrrolidin-1-yl-cyclopentyl)-4-trifluoromethyl-benzamide], `COc1cc(C(F)(F)F)cc(SC)c1C(=O)N[C@@H]1CCC[C@@H]1N1CCCC1` (single isomer, unassigned) [Example 58, (−)-2-Methoxy-6-methylsulfanyl-N-(2-pyrrolidin-1-yl-cyclopentyl)-4-trifluoromethyl-benzamide] is 2.6-fold lower in IC50: 71.4 nM for the first, 27.6 nM for the second.

Going from `O=C(N[C@H]1CCC[C@H]1N1CCCC1)c1c(C2CC2)cc(C(F)(F)F)cc1C(F)(F)F` (relative stereo) [Example 130, 2-Cyclopropyl-N-((cis)-2-pyrrolidin-1-yl-cyclopentyl)-4,6-bis-trifluoromethyl-benzamide] to `O=C(N[C@H]1CCC[C@H]1N1CCCC1)c1ccc(C(F)(F)F)cc1C(F)(F)F` (single isomer, unassigned) [Example 78, (−)-N-(2-Pyrrolidin-1-yl-cyclopentyl)-2,4-bis-trifluoromethyl-benzamide], the IC50 rises from 35.4 nM to 75.4 nM (2.1-fold). The first is the more potent here.

`O=C(NC1CCCC1N1CCCC1)c1ccc(C(F)(F)F)cc1C1CC1` (single isomer, unassigned; (+)) [Example 97, (+)-2-Cyclopropyl-N-cis-(-2-pyrrolidin-1-yl-cyclopentyl)-4-trifluoromethyl-benzamide] and `COc1cc(C(F)(F)F)cc(SC)c1C(=O)N[C@@H]1CCC[C@@H]1N1CCCC1` (racemic) [Example 55, 2-Methoxy-6-methylsulfanyl-N-((1RS,2SR)-2-pyrrolidin-1-yl-cyclopentyl)-4-trifluoromethyl-benzamide] are within 1.5-fold of each other in IC50: 82.4 nM for the first, 84.6 nM for the second.

same assay, conditions: read-out: IC50 data

`O=C(NC1CCCC1NC1CCCC1)c1ccc(C(F)(F)F)cc1C1CC1` (single isomer, unassigned; (+)) [Example 109, (+)-cis-N-2-Cyclopentylamino-cyclopentyl)-2-cyclopropyl-4-trifluoromethyl-benzamide] and `O=C(N[C@H]1CCC[C@H]1NC1CCCC1)c1ccc(C(F)(F)F)cc1C1CC1` (racemic) [Example 102, N-((1SR,2RS)-2-Cyclopentylamino-cyclopentyl)-2-cyclopropyl-4-trifluoromethyl-benzamide] are within 1.5-fold of each other in IC50: 25.3 nM for the first, 35.1 nM for the second.

`O=C(NC1CCCC1NC1CCCC1)c1ccc(C(F)(F)F)cc1C1CC1` (single isomer, unassigned; (-)) [Example 110, (−)-cis-N-2-Cyclopentylamino-cyclopentyl)-2-cyclopropyl-4-trifluoromethyl-benzamide] and `COc1cc(C(F)(F)F)cc(SC)c1C(=O)N[C@@H]1CCC[C@@H]1NC1CCCC1` (racemic) [Example 65, N-((1RS,2SR)-2-Cyclopentylamino-cyclopentyl)-2-methoxy-6-methylsulfanyl-4-trifluoromethyl-benzamide] are within 1.5-fold of each other in IC50: 54.3 nM for the first, 56.4 nM for the second.

First: COc1cc(C(F)(F)F)cc(SC)c1C(=O)N[C@@H]1CCC[C@@H]1NC1CCC1 (single isomer, unassigned) [Example 62, (−)-cis-N-(-2-Cyclobutylamino-cyclopentyl)-2-methoxy-6-methylsulfanyl-4-trifluoromethyl-benzamide]
Second: COc1cc(C(F)(F)F)cc(SC)c1C(=O)N[C@H]1CCC[C@H]1NC1CCCC1 (single isomer, unassigned) [Example 68, (−)-N-(2-Cyclopentylamino-cyclopentyl)-2-methoxy-6-methylsulfanyl-4-trifluoromethyl-benzamide]
The IC50 of the first is 1.6-fold higher: 31.6 nM for the first, 19.4 nM for the second. The second is the more potent here.
